The text below walks through data of patent US10005768B2, “Carboxamide derivatives and use thereof” (Purdue Pharma L.P., priority 2013, dated 2018).

Molecules are shown by their SMILES.

Sequence of human Nav1.7 (Q15858 other isoform, or with tags, fused parts or gaps): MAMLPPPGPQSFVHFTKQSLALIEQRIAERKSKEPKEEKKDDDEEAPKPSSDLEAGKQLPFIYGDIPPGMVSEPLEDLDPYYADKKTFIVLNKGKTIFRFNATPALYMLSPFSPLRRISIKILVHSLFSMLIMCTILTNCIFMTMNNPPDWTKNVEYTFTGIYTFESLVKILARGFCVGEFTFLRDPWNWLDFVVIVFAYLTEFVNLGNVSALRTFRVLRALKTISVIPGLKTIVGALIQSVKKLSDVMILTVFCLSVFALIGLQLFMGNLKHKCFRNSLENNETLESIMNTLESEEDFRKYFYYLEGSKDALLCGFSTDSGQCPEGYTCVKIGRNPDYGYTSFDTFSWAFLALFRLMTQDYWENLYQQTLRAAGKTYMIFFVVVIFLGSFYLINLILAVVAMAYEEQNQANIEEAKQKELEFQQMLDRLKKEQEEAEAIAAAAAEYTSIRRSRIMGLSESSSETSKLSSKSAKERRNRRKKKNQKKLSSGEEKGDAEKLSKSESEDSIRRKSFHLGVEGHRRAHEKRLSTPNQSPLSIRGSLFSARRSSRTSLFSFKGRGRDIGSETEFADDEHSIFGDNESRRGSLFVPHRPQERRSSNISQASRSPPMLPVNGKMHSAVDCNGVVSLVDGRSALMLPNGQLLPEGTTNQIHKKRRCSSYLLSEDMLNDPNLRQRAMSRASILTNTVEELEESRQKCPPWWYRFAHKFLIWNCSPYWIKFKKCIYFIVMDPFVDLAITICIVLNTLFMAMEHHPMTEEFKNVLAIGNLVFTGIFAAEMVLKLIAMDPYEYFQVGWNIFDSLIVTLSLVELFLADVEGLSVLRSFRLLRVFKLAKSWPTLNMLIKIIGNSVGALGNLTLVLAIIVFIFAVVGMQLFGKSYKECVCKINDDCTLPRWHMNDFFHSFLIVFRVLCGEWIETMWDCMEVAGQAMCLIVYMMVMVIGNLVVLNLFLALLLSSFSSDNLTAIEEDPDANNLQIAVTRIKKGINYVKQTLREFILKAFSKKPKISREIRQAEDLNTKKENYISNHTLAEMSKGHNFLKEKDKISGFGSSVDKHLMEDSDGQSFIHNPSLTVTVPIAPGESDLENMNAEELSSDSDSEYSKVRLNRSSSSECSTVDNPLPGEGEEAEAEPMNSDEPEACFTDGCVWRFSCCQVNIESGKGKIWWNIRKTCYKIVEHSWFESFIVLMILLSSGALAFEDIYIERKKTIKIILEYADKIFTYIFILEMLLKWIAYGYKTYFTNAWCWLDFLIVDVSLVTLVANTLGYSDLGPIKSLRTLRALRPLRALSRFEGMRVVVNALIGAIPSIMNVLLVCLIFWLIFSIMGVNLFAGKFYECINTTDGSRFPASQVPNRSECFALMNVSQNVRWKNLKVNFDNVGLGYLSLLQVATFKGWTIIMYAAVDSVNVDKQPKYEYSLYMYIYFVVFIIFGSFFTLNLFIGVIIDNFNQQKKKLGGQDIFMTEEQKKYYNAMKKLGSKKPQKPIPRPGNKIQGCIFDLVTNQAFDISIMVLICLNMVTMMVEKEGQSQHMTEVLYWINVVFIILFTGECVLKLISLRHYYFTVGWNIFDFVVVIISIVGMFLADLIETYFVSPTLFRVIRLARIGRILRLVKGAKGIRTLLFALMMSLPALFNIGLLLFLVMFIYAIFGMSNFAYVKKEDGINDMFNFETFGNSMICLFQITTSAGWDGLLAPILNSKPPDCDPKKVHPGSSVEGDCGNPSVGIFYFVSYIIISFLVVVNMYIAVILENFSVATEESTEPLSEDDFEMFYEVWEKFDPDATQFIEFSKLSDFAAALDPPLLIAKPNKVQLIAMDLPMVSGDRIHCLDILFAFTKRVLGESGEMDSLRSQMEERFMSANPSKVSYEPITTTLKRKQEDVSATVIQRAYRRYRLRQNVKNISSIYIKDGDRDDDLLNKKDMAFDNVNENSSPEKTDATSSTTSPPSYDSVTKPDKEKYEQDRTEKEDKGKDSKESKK

In this assay the target is human Nav1.7 (Homo sapiens (Human), UniProt Q15858). Kind of assay: FLIPR sodium dye assay (CoroNa Green AM Na+ dye, primary fluorescence assay). The format is cell-based. Conditions: recombinant Nav1.7/HEK293 cells. On the procedure:
In vitro assays were performed in a recombinant cell line expressing cDNA encoding the alpha subunit (Nav1.7, SCN9a, PN1, NE) of human Nav1.7 (Accession No. NM_002977). The cell line was provided by investigators at Yale University (Cummins et al, J. Neurosci. 18(23): 9607-9619 (1998)). For dominant selection of the Nav1.7-expressing clones, the expression plasmid co-expressed the neomycin resistance gene. The cell line was constructed in the human embryonic kidney cell line, HEK293, under the influence of the CMV […] promoter, and stable clones were selected using limiting dilution cloning and antibiotic selection using the neomycin analogue, G418. Recombinant beta and gamma subunits were not introduced into this cell line. Additional cell lines expressing recombinant Nav1.7 cloned from other species can also be used, alone or in combination with various beta subunits, gamma subunits or chaperones.
Unless otherwise noted, cell culture reagents were purchased from Mediatech of Herndon, Va. The recombinant Nav1.7/HEK293 cells were routinely cultured in growth medium consisting of Dulbecco's […] essential medium containing 10% fetal bovine serum (FBS, Hyclone, Thermo Fisher Scientific, Logan, Utah), 100 U/mL penicillin, 100 μg/mL streptomycin, 2-4 mM L-glutamine, and […] G418. For natural, non-recombinant cell lines, the selective antibiotic was omitted, and additional media formulations can be applied as needed.
The final buffer consisted of 20 mM Hepes, pH 7.3, 1.261 mM CaCl2, 0.493 mM MgCl2, 0.407 mM Mg(SO)4, 5.33 mM KCl, 0.441 mM KH2PO4, 137 mM NaCl, 0.336 mM Na2HPO4 and […] D-glucose (Hanks et al., Proc. Soc. Exp. Biol. Med. 71:196 (1949)), and the simple formulation was typically the basic buffer throughout the assay (i.e., all wash and addition steps).
The fluorescence indicator used in the primary fluorescence assay was the cell permeant version of CoroNa™ Green (Invitrogen, Molecular Probes, Eugene, Oreg.), a dye that emits light in the fluorescence range (Harootunian et al., J. Biol. Chem. 264(32):19458-19467 (1989)). The intensity of this emission, but not the wavelength range, is increased when the dye is exposed to Na^+ ions, which it can bind with partial selectivity. Cells expressing Nav1.7 or other sodium channels were loaded with the CoroNa™ Green dye immediately in advance of the fluorescence assay, and then, after agonist stimulation, the mobilization of Na^+ ions was detected as the Na^+ ions flowed from the extracellular fluid into the cytoplasm through the activated sodium channel pores. The dye was stored in the dark as a lyophilized powder, and then an aliquot was dissolved immediately before the cell loading procedure, according to the instructions of the manufacturer, to a stock concentration of 10 mM in DMSO. It was then diluted in the assay buffer to a 4× concentrated working solution, so that the final concentration of dye in the cell loading buffer was 5 μM.
In the fluorescence assays, two agonists were used in combination, namely 1) veratridine; and 2) the venom from the yellow scorpion, Leiurus quinquestriatus hebraeus. Veratridine is an alkaloid small molecule that facilitates the capture of channel openings by inhibiting inactivation, and the scorpion venom is a natural preparation that includes peptide toxins selective for different subsets of voltage-gated sodium channels. These scorpion toxins inhibit the fast inactivation of their cognate target channels. Stock solutions of the agonists were prepared to 40 mM in DMSO (veratridine) and 1 mg/mL in dH2O (scorpion venom), and then diluted to make a 4× or 2× stock (depending on the particular assay) in assay buffer, the final concentration being 100 μM (veratridine) and 10 μg/mL (scorpion venom). Both of the agonists were purchased from Sigma Aldrich, St. Louis, Mo.
Test compounds were dissolved in DMSO to yield 10 mM stock solutions. […]
What is called IC50 is the concentration that gives 50% inhibition. As to `N#Cc1ccc(Oc2ccc(-c3cccc(C(N)=O)n3)cc2)cc1-c1ccncc1` [compound 26, 6-(4-(4-cyano-3-(pyridin-4-yl)phenoxy)phenyl)picolinamide], the 50% inhibitory concentration (IC50) turned out to be 0.054 ± 0.005 µM. As to `CN(C)CCCNCc1cc(C(F)(F)F)ccc1Oc1ccc(-c2cccc(C(N)=O)n2)cc1` [compound 38, 6-(4-(2-(((3-(dimethylamino)-propyl)amino)methyl)-4-(trifluoromethyl)phenoxy)phenyl) picolinamide], the IC50 stood at 1.69 ± 0.157 µM. For the compound `CN1CCN(Cc2cc(C(F)(F)F)ccc2Oc2ccc(-c3cccc(C(N)=O)n3)cc2)CC1` [compound 33, 6-(4-(2-((4-methylpiperazin-1-yl)methyl)-4-(trifluoromethyl)-phenoxy)phenyl)picolinamide], the IC50 stood at 0.221 ± 0.049 µM. On to `NC(=O)c1cccc(-c2ccc(Oc3ccc(C(F)(F)F)cc3CN3CCCC(C(N)=O)C3)cc2)n1` (stereo not drawn) [compound 121, 6-(4-(2-((3-carbamoylpiperidin-1-yl)methyl)-4-(trifluoromethyl)phenoxy)phenyl) picolinamide], for which the IC50 was determined as 0.716 ± 0.09 µM. The value for `NC(=O)c1cccc(-c2ccc(Oc3ccc(C(F)(F)F)cc3CN3CCC[C@H]3C(N)=O)cc2)n1` [compound 44, (S)-6-(4-(2-((2-carbamoyl-pyrrolidin-1-yl)methyl)-4-(trifluoromethyl)phenoxy)phenyl) picolinamide] was 1.16 ± 0.076 µM; that for `OC[C@@H](O)c1cccc(-c2ccc(Oc3ccc(C(F)(F)F)cc3CN3CCCCC3)cc2)n1` [compound 107, (S)-1-(6-(4-(2-(piperidin-1-ylmethyl)-4-(trifluoromethyl)phenoxy)phenyl)pyridin-2-yl)ethane-1,2-diol] was 0.174 ± 0.041 µM. With `NC(=O)c1cccc(-c2ccc(Oc3ccc(C(F)(F)F)c(CNCCC(F)(F)F)c3)cc2)n1` [compound 55, 6-(4-(4-(trifluoromethyl)-3-(((3,3,3-trifluoropropyl)amino)-methyl)phenoxy)phenyl)picolin-amide], the IC50 amounted to 0.174 ± 0.018 µM. As to `NC(=O)c1cccc(-c2ccc(Oc3ccc(C(F)(F)F)cc3CN3CCOCC3)cc2)n1` [compound 43, 6-(4-(2-(morpholinomethyl)-4-(trifluoromethyl)phenoxy)phenyl) picolinamide], the concentration for half-maximal inhibition (IC50) came out at 0.223 ± 0.018 µM. For `CN(C)CCNCc1cc(C(F)(F)F)ccc1Oc1ccc(-c2cccc(C(N)=O)n2)cc1` [compound 31, 6-(4-(2-(((2-(dimethylamino)ethyl)amino)methyl)-4-(trifluoromethyl)phenoxy)phenyl) picolinamide], the IC50 amounted to 2.14 ± 0.432 µM. With `NC(=O)c1cccc(-c2ccc(Oc3ccc(F)cc3)c(CN3CCOCC3)c2)n1` [compound 98, 6-(4-(4-fluorophenoxy)-3-(morpholinomethyl)phenyl)picolin-amide], the IC50 stood at 0.961 ± 0.07 µM.

Consider `COCc1cc(-c2cccc(C(N)=O)n2)ccc1Oc1ccc(F)cc1` [compound 103, 6-(4-(4-fluorophenoxy)-3-(methoxymethyl)phenyl)picolin-amide], for which the IC50 came out at 0.312 ± 0.008 µM. The result for `NC(=O)c1cccc(-c2ccc(Oc3ccc(F)cc3)cc2F)n1` [compound 99, 6-(2-fluoro-4-(4-fluorophenoxy)-phenyl)picolinamide] reads 0.55 ± 0.057 µM; that for `NC(=O)c1cccc(-c2ccc(Oc3cccc(CN4CCCC4)n3)cc2)n1` [compound 59, 6-(4-((6-(pyrrolidin-1-ylmethyl)pyridin-2-yl)oxy)phenyl)picolinamide], more than 20 µM; that for `CCCNC(C(N)=O)c1cc(C(F)(F)F)ccc1Oc1ccc(-c2cccc(C(N)=O)n2)cc1` (stereo not drawn) [compound 83, 6-(4-(2-(2-amino-2-oxo-1-(propylamino)ethyl)-4-(trifluoromethyl)phenoxy)phenyl) picolinamide], 6.05 ± 1.33 µM. The value for `N#Cc1ccc(Oc2ccc(-c3cccc(C(N)=O)n3)cc2)c(-c2ccc(O)nc2)c1` [compound 23, 6-(4-(4-cyano-2-(6-hydroxypyridin-3-yl)phenoxy)phenyl)picolinamide] was more than 20 µM; that for `NC(=O)c1cccc(-c2ccc(Oc3ccc(C(F)(F)F)cc3CN3CCC(F)(F)C3)cc2)n1` [compound 45, 6-(4-(2-((3,3-difluoropyrrolidin-1-yl)methyl)-4-(trifluoromethyl)phenoxy)phenyl) picolinamide] was 0.113 ± 0.034 µM; that for `NC(=O)c1cccc(-c2ccc(Oc3ccc(C(F)(F)F)cc3C(=O)N3CCNC(=O)C3)cc2)n1` [compound 165, 6-(4-(2-(3-oxopiperazine-1-carbonyl)-4-(trifluoromethyl)-phenoxy)phenyl)picolinamide] was more than 20 µM. Regarding `NCc1cc(C(F)(F)F)ccc1Oc1ccc(-c2cccc(C(N)=O)n2)cc1` [compound 65, 6-(4-(2-(aminomethyl)-4-(trifluoromethyl)phenoxy)phenyl) picolinamide], the IC50 amounted to 0.862 ± 0.012 µM. The result for `NC(=O)c1cccc(-c2ccc(Oc3ccc(C(F)(F)F)cc3CN3CCCC3)cc2)n1` [compound 30, 6-(4-(2-(pyrrolidin-1-ylmethyl)-4-(trifluoromethyl)phenoxy)phenyl) picolinamide] reads 0.049 ± 0.003 µM; that for `N#Cc1ccc(Oc2ccc(-c3cccc(C(N)=O)n3)cc2)c(-c2cccnc2)c1` [compound 16, 6-(4-(4-cyano-2-(pyridin-3-yl)phenoxy)phenyl)picolinamide], 0.104 ± 0.02 µM; that for `CCN(CC)Cc1cc(-c2cccc(C(N)=O)n2)ccc1Oc1ccc(F)cc1` [compound 95, 6-(3-((diethylamino)methyl)-4-(4-fluorophenoxy)phenyl) picolinamide], 1.33 ± 0.209 µM.

Consider `NC(=O)c1cccc(-c2ccc(Oc3ccc(C(F)(F)F)cc3CNCCc3ccc(S(N)(=O)=O)cc3)cc2)n1` [compound 32, 6-(4-(2-(((4-sulfamoylphenethyl)-amino)methyl)-4-(trifluoro-methyl)phenoxy)phenyl)picolin-amide], for which the IC50 was determined as 3.05 ± 0.942 µM. Turning to `NC(=O)c1cccc(-c2ccc(Oc3ccc(C(F)(F)F)cc3[C@@H](O)CO)cc2)n1` [compound 77, (R)-6-(4-(2-(1,2-dihydroxyethyl)-4-(trifluoromethyl)-phenoxy)phenyl)picolinamide], the concentration for half-maximal inhibition (IC50) stood at 2.45 ± 0.344 µM.

Take `NC(=O)c1cccc(-c2ccc(Oc3ccc(C(F)(F)F)c(CN4CC[C@H](O)C4)c3)cc2)n1` [compound 54, (S)-6-(4-(3-((3-hydroxy-pyrrolidin-1-yl)methyl)-4-(trifluoromethyl)phenoxy)-phenyl)picolinamide]: the IC50 was 0.366 ± 0.085 µM.

As for `NC(=O)c1cccc(-c2ccc(Oc3ccc(F)cc3)c(-c3ccc(Cl)cc3)c2)n1` [compound 100, 6-(4′-chloro-6-(4-fluorophenoxy)-[1,1′-biphenyl]-3-yl)picolinamide], the half-maximal inhibitory concentration (IC50) was 0.276 ± 0.063 µM. For `NC(=O)c1cccc(-c2ccc(Oc3ccc(C(F)(F)F)cc3C(C(N)=O)N3CCCCC3)cc2)n1` (stereo not drawn) [compound 82, 6-(4-(2-(2-amino-2-oxo-1-(piperidin-1-yl)ethyl)-4-(trifluoromethyl)phenoxy)phenyl) picolinamide], the half-maximal inhibitory concentration (IC50) is 2.72 ± 0.264 µM. With `CCN(CC)C(=O)c1cc(C(F)(F)F)ccc1Oc1ccc(-c2cccc(C(N)=O)n2)cc1` [compound 164, 6-(4-(2-(diethylcarbamoyl)-4-(trifluoromethyl)phenoxy)phenyl) picolinamide], the half-maximal inhibitory concentration (IC50) turned out to be 0.143 ± 0.023 µM. Turning to `N#Cc1cc(-c2cccc(C(N)=O)n2)ccc1Oc1ccc(F)cc1` [compound 89], the IC50 is more than 20 µM. The result for `NC(=O)c1cccc(-c2ccc(Oc3ccc(F)cc3)c(Cl)c2)n1` [compound 87, 6-(3-chloro-4-(4-fluorophenoxy)-phenyl)picolinamide] reads 0.128 ± 0.03 µM. Turning to `N#Cc1ccc(OCc2cc(-c3cccc(C(N)=O)n3)ccc2Oc2ccc(F)cc2)cc1` [compound 105, 6-(3-((4-cyanophenoxy)methyl)-4-(4-fluorophenoxy)phenyl)picolinamide], the half-inhibitory concentration (IC50) was 0.362 ± 0.095 µM.
